Experiments:
[1] = molecular target: T1, human V1a receptor (Homo sapiens, UniProt P37288); test: Cellular in vitro assay for determining vasopressin receptor activity, V1a receptor cell line (CHO, aequorin luminescence); format: cell-based; details: for IC50: CHO cell line transfected with human V1a receptor, [Arg]-vasopressin at EC50 concentration, read-out: IC50 hV1a; for ratio IC50 hV2/hV1a: selectivity ratio IC50 hV2 / IC50 hV1a
T1 construct: expressed in transfected cells; host or cells: CHO K1 (ATCC), also stably transfected with a modified aequorin
How it was run: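 CHO K1/aequorin cells, coelenterazine 5 μg/ml o/n; cpd 10 min; [Arg]-vasopressin at EC50; luminescence read immediately; IC50.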

[2] = molecular target: T2, human V2 receptor (Homo sapiens, UniProt P30518); test: Cellular in vitro assay for determining vasopressin receptor activity, V2 receptor cell line (CHO, CRE-luciferase); format: cell-based; details: CHO cell line transfected with human V2 receptor; [Arg8]-vasopressin at EC50 concentration, 3 hours; read-out: IC50 hV2
T2 construct: expressed in transfected cells; host or cells: CHO K1 (ATCC) expressing firefly luciferase under a CRE-responsive promoter
T2 sequence (P30518 whole entry): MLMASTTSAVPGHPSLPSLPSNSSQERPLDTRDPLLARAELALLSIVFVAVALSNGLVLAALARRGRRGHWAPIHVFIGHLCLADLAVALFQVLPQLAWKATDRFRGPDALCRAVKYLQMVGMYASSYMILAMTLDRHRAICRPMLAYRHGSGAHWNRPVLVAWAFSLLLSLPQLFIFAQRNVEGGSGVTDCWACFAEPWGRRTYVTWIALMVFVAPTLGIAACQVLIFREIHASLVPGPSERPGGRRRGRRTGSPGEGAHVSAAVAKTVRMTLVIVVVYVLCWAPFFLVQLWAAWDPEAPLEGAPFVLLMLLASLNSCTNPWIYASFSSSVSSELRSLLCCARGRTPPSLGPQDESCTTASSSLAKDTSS

T1 sequence (P37288 whole entry): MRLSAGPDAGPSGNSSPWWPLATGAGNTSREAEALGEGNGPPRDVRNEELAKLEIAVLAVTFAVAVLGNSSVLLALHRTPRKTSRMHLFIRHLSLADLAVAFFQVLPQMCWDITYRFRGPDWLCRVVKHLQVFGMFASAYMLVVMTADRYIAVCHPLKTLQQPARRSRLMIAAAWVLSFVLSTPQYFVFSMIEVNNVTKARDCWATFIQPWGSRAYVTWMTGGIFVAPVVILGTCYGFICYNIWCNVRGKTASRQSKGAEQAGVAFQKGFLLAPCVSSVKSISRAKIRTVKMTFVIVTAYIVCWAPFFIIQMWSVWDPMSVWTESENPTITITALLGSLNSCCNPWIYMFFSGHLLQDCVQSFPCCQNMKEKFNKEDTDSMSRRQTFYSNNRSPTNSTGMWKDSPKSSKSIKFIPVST

Compound	IC50 [1]	ratio IC50 hV2/hV1a [1]	IC50 [2]
O=C(NC1CC1)c1ccccc1-n1cnc(Cn2nc(-c3ccc(Cl)cc3)n(C[C@H](O)C(F)(F)F)c2=O)n1 [Example 340, 2-[3-({3-(4-Chlorophenyl)-5-oxo-4-[(2S)-3,3,3-trifluoro-2-hydroxypropyl]-4,5-dihydro-1H-1,2,4-triazol-1-yl}methyl)-1H-1,2,4-triazol-1-yl]-N-cyclopropylbenzamide]	8.5 nM	45.9	390 nM
CC(C)CNC(=O)c1ccccc1-n1cnc(Cn2nc(-c3ccc(Cl)cc3)n(C[C@H](O)C(F)(F)F)c2=O)n1 [Example 341, 2-[3-({3-(4-Chlorophenyl)-5-oxo-4-[(2S)-3,3,3-trifluoro-2-hydroxypropyl]-4,5-dihydro-1H-1,2,4-triazol-1-yl}methyl)-1H-1,2,4-triazol-1-yl]-N-(2-methylpropyl)benzamide]	1.55 nM	132.3	205 nM
O=C(NC1CCCCCC1)c1ccccc1-n1cnc(Cn2nc(-c3ccc(Cl)cc3)n(C[C@H](O)C(F)(F)F)c2=O)n1 [Example 342, 2-[3-({3-(4-Chlorophenyl)-5-oxo-4-[(2S)-3,3,3-trifluoro-2-hydroxypropyl]-4,5-dihydro-1H-1,2,4-triazol-1-yl}methyl)-1H-1,2,4-triazol-1-yl]-N-cycloheptylbenzamide]	6.15 nM	59.3	365 nM
O=C(NC1CCCC1)c1ccccc1-n1cnc(Cn2nc(-c3ccc(Cl)cc3)n(C[C@H](O)C(F)(F)F)c2=O)n1 [Example 343, 2-[3-({3-(4-Chlorophenyl)-5-oxo-4-[(2S)-3,3,3-trifluoro-2-hydroxypropyl]-4,5-dihydro-1H-1,2,4-triazol-1-yl}methyl)-1H-1,2,4-triazol-1-yl]-N-cyclopentylbenzamide]	0.87 nM	118.4	103 nM
CC(C)(C)NC(=O)c1ccccc1-n1cnc(Cn2nc(-c3ccc(Cl)cc3)n(C[C@H](O)C(F)(F)F)c2=O)n1 [Example 344, N-Tert-butyl-2-[3-({3-(4-chlorophenyl)-5-oxo-4-[(2S)-3,3,3-trifluoro-2-hydroxypropyl]-4,5-dihydro-1H-1,2,4-triazol-1-yl}methyl)-1H-1,2,4-triazol-1-yl]benzamide]	0.93 nM	5.0	4.7 nM
CC[C@H](C)NC(=O)c1ccccc1-n1cnc(Cn2nc(-c3ccc(Cl)cc3)n(C[C@H](O)C(F)(F)F)c2=O)n1 [Example 346, N-[(2S)-Butan-2-yl]-2-[3-({3-(4-chlorophenyl)-5-oxo-4-[(2S)-3,3,3-trifluoro-2-hydroxypropyl]-4,5-dihydro-1H-1,2,4-triazol-1-yl}methyl)-1H-1,2,4-triazol-1-yl]benzamide]	1.75 nM	67.7	119 nM
CCN(C(=O)c1ccccc1-n1cnc(Cn2nc(-c3ccc(Cl)cc3)n(C[C@H](O)C(F)(F)F)c2=O)n1)C(C)C [Example 349, 2-[3-({3-(4-Chlorophenyl)-5-oxo-4-[(2S)-3,3,3-trifluoro-2-hydroxypropyl]-4,5-dihydro-1H-1,2,4-triazol-1-yl}methyl)-1H-1,2,4-triazol-1-yl]-N-ethyl-N-(propan-2-yl)benzamide]	4.7 nM	157.4	740 nM
O=C(c1ccccc1-n1cnc(Cn2nc(-c3ccc(Cl)cc3)n(C[C@H](O)C(F)(F)F)c2=O)n1)N1CCCCCC1 [Example 350, 2-({1-[2-(Azepan-1-ylcarbonyl)phenyl]-1H-1,2,4-triazol-3-yl}methyl)-5-(4-chlorophenyl)-4-[(2S)-3,3,3-trifluoro-2-hydroxypropyl]-2,4-dihydro-3H-1,2,4-triazol-3-one]	1.8 nM	147.2	265 nM
O=C(NC1CCCCC1)c1ccccc1-n1cnc(Cn2nc(-c3ccc(Cl)cc3)n(C[C@H](O)C(F)(F)F)c2=O)n1 [Example 354, 2-[3-({3-(4-Chlorophenyl)-5-oxo-4-[(2S)-3,3,3-trifluoro-2-hydroxypropyl]-4,5-dihydro-1H-1,2,4-triazol-1-yl}methyl)-1H-1,2,4-triazol-1-yl]-N-cyclohexylbenzamide]	2.25 nM	66.7	150 nM

Second part, the compound after the results:

IC50 [1]	ratio IC50 hV2/hV1a [1]	IC50 [2]	Compound
20.5 nM	509.8	10500 nM	CN(C)[C@H]1CCN(C(=O)c2ccccc2-n2cnc(Cn3nc(-c4ccc(Cl)cc4)n(C[C@H](O)C(F)(F)F)c3=O)n2)C1 [Example 332, 5-(4-Chlorophenyl)-2-{[1-(2-{[(3S)-3-(dimethylamino)pyrrolidin-1-yl]carbonyl}phenyl)-1H-1,2,4-triazol-3-yl]methyl}-4-[(2S)-3,3,3-trifluoro-2-hydroxypropyl]-2,4-dihydro-3H-1,2,4-triazol-3-one]
5.55 nM	1612.6	8950 nM	CN(C)[C@@H]1CCN(C(=O)c2ccccc2-n2cnc(Cn3nc(-c4ccc(Cl)cc4)n(C[C@H](O)C(F)(F)F)c3=O)n2)C1 [Example 333, 5-(4-Chlorophenyl)-2-{[1-(2-{[(3R)-3-(dimethylamino)pyrrolidin-1-yl]carbonyl}phenyl)-1H-1,2,4-triazol-3-yl]methyl}-4-[(2S)-3,3,3-trifluoro-2-hydroxypropyl]-2,4-dihydro-3H-1,2,4-triazol-3-one]
2.95 nM	289.8	855 nM	O=C(c1ccccc1-n1cnc(Cn2nc(-c3ccc(Cl)cc3)n(C[C@H](O)C(F)(F)F)c2=O)n1)N1CCSC1 [Example 334, 5-(4-Chlorophenyl)-2-({1-[2-(1,3-thiazolidin-3-ylcarbonyl)phenyl]-1H-1,2,4-triazol-3-yl}methyl)-4-[(2S)-3,3,3-trifluoro-2-hydroxypropyl]-2,4-dihydro-3H-1,2,4-triazol-3-one]
15.5 nM	71.3	1100 nM	COC[C@H]1CCCN1C(=O)c1ccccc1-n1cnc(Cn2nc(-c3ccc(Cl)cc3)n(C[C@H](O)C(F)(F)F)c2=O)n1 [Example 335, 5-(4-Chlorophenyl)-2-{[1-(2-{[(2R)-2-(methoxymethyl)pyrrolidin-1-yl]carbonyl}phenyl)-1H-1,2,4-triazol-3-yl]methyl}-4-[(2S)-3,3,3-trifluoro-2-hydroxypropyl]-2,4-dihydro-3H-1,2,4-triazol-3-one]
2.8 nM	453.6	1270 nM	CC1(C)CCCN1C(=O)c1ccccc1-n1cnc(Cn2nc(-c3ccc(Cl)cc3)n(C[C@H](O)C(F)(F)F)c2=O)n1 [Example 336, 5-(4-Chlorophenyl)-2-[(1-{2-[(2,2-dimethylpyrrolidin-1-yl)carbonyl]phenyl}-1H-1,2,4-triazol-3-yl)methyl]-4-[(2S)-3,3,3-trifluoro-2-hydroxypropyl]-2,4-dihydro-3H-1,2,4-triazol-3-one]
1.6 nM	600.0	960 nM	O=C(c1ccccc1-n1cnc(Cn2nc(-c3ccc(Cl)cc3)n(C[C@H](O)C(F)(F)F)c2=O)n1)N1CCCCC1 [Example 338, 5-(4-Chlorophenyl)-2-({1-[2-(piperidin-1-ylcarbonyl)phenyl]-1H-1,2,4-triazol-3-yl}methyl)-4-[(2S)-3,3,3-trifluoro-2-hydroxypropyl]-2,4-dihydro-3H-1,2,4-triazol-3-one]
2.75 nM	1327.3	3650 nM	COC[C@@H]1CCCN1C(=O)c1ccccc1-n1cnc(Cn2nc(-c3ccc(Cl)cc3)n(C[C@H](O)C(F)(F)F)c2=O)n1 [Example 339, 5-(4-Chlorophenyl)-2-{[1-(2-{[(2S)-2-(methoxymethyl)pyrrolidin-1-yl]carbonyl}phenyl)-1H-1,2,4-triazol-3-yl]methyl}-4-[(2S)-3,3,3-trifluoro-2-hydroxypropyl]-2,4-dihydro-3H-1,2,4-triazol-3-one]
7.55 nM	141.1	1060 nM	CC1CCN(C(=O)c2ccccc2-n2cnc(Cn3nc(-c4ccc(Cl)cc4)n(C[C@H](O)C(F)(F)F)c3=O)n2)CC1 [Example 347, 5-(4-Chlorophenyl)-2-[(1-{2-[(4-methylpiperidin-1-yl)carbonyl]phenyl}-1H-1,2,4-triazol-3-yl)methyl]-4-[(2S)-3,3,3-trifluoro-2-hydroxypropyl]-2,4-dihydro-3H-1,2,4-triazol-3-one]
3.85 nM	251.9	970 nM	O=C(c1ccccc1-n1cnc(Cn2nc(-c3ccc(Cl)cc3)n(C[C@H](O)C(F)(F)F)c2=O)n1)N1CCCC1 [Example 348, 5-(4-Chlorophenyl)-2-({1-[2-(pyrrolidin-1-ylcarbonyl)phenyl]-1H-1,2,4-triazol-3-yl}methyl)-4-[(2S)-3,3,3-trifluoro-2-hydroxypropyl]-2,4-dihydro-3H-1,2,4-triazol-3-one]
0.84 nM	383.2	320 nM	CC1CCCCN1C(=O)c1ccccc1-n1cnc(Cn2nc(-c3ccc(Cl)cc3)n(C[C@H](O)C(F)(F)F)c2=O)n1 (stereo partly drawn) [Example 352, 5-(4-Chlorophenyl)-2-{[1-(2-{[2-methylpiperidin-1-yl]carbonyl}phenyl)-1H-1,2,4-triazol-3-yl]methyl}-4-[(2S)-3,3,3-trifluoro-2-hydroxypropyl]-2,4-dihydro-3H-1,2,4-triazol-3-one]
0.94 nM	299.5	280 nM	O=C(c1ccccc1-n1cnc(Cn2nc(-c3ccc(Cl)cc3)n(C[C@H](O)C(F)(F)F)c2=O)n1)N1CC=CCC1 [Example 353, 5-(4-Chlorophenyl)-2-({1-[2-(3,6-dihydropyridin-1(2H)-ylcarbonyl)phenyl]-1H-1,2,4-triazol-3-yl}methyl)-4-[(2S)-3,3,3-trifluoro-2-hydroxypropyl]-2,4-dihydro-3H-1,2,4-triazol-3-one]
